# Experimental data reported in patent publication US20210322582A1, “RADIOACTIVE IMIDAZOTHIADIAZOLE DERIVATIVE COMPOUND” (Nihon Medi-Physics Co., Ltd., priority 2018, published 2021).
# Columns and labels:
# Assay type in all cases: in vivo
# [1] = system: MDA-MB-231 tumor; test: SPECT/CT imaging using [^111In]ITDA1; conditions: MDA-MB-231 cancer-bearing mouse, 24 hours from administration
# Procedure: (§1) HT-29 cells (5×10^6 cells/mouse) and MDA-MB-231 cells (5×10^6 cells/mouse) were subcutaneously inoculated into the left shoulders of 5-week old male BALB/c nude mice, respectively. A saline solution (150 μL) in which [^111In]ITDA1 (23.8 to 26.2 MBq) had been dissolved was administered to each of the cancer-bearing mice via the tail vein. Each of the mice was subjected to SPECT/CT imaging after the lapse of 1, 4, 8, and 24 hours from the administration. U-SPECT-II/CT (single-pinhole collimator 0.6 or 1.0 mm, resolution: 0.45 mm) manufactured by Milab was used as the SPECT/CT device, and data were collected for 60 minutes in 1, 4, 8, and 24 hours from the administration.
# (§2) The collected data were reconstructed by a three-dimensional ordered-subset expectation maximization (3D-OSEM) method. The results of HT-29 cancer-bearing mouse are shown in FIG. 6A, and the results of MDA-MB-231 cancer-bearing mouse are shown in FIG. 6B.
# [2] = system: HT-29 tumor; test: SPECT/CT imaging using [^111In]ITDA1; conditions: HT-29 cancer-bearing mouse, 24 hours from administration
# Procedure: as §1, §2
# [3] = system: MDA-MB-231 tumor; test: Biodistribution of [^111In]ITDA2 in MDA-MB-231 tumor cancer-bearing mouse; conditions: MDA-MB-231 tumor mouse, 24 hours
# Procedure: (§3) HT-29 cells (5×10^6 cells/mouse) and MDA-MB-231 cells (1×10^7 cells/mouse) were subcutaneously inoculated into the left shoulders of 5-week old male BALB/c nude mice, respectively, and the mice were used when the tumor diameter reached 6 to 10 mm. A saline solution (100 μL) in which [^111In]ITDA2 (40 kBq) had been dissolved was administered to each of the HT-29 tumor or MDA-MB-231 tumor cancer-bearing mice (n=5) via the tail vein. The HT-29 tumor cancer-bearing mice were slaughtered after the lapse of 1, 4, 8, and 24 hours from the administration, the MDA-MB-231 tumor cancer-bearing mouse was slaughtered after the lapse of 24 hours from the administration, and the blood, spleen, pancreas, stomach, intestines, kidney, liver, heart, lungs, brain, tumor, and muscle were recovered from each of the mice. The weight of each organ was measured, and the amount of radioactivity in each organ was measured by using a gamma counter. The accumulation of radioactivity in each organ except for stomach was expressed by % injected dose/g organ obtained by dividing the ratio of the amount of radioactivity of each organ to the administered amount of radioactivity by the organ weight. The stomach was expressed by % injected dose.
# [4] = system: HT-29 tumor; test: Biodistribution of [^111In]ITDA2 in HT-29 tumor cancer-bearing mouse; conditions: HT-29 tumor mouse
# Procedure: as §3
# [5] = system: MDA-MB-231-transplanted tumor; test: Biodistribution of [^111In]ITDA3 in MDA-MB-231 cancer-bearing mouse; conditions: MDA-MB-231 mouse, 24 hours after administration
# Procedure: HT-29 cells and MDA-MB-231 cells (5×10^6 cells/mouse) were subcutaneously inoculated into the left shoulders of 5-week old male BALB/c nude mice, respectively. A saline solution (100 μL) in which[^111In]ITDA3 (40 kBq) had been dissolved was administered to each of the cancer-bearing mice (n=5) via the tail vein. The HT-29 cancer-bearing mice were slaughtered after the lapse of 1, 4, and 24 hours from the administration, the MDA-MB-231 cancer-bearing mouse was slaughtered after the lapse of 24 hours from the administration, and the blood, spleen, pancreas, stomach, intestines, kidney, liver, heart, lungs, brain, HT-29 or MDA-MB-231-transplanted tumor, and muscle were recovered from each of the mice. The weight of each organ was measured, and the amount of radioactivity in each organ was measured by using a gamma counter. The accumulation of radioactivity in each organ except for stomach was expressed by % ID (injected dose)/g obtained by dividing the ratio of the amount of radioactivity of each organ to the administered amount of radioactivity by the organ weight. The stomach was expressed by % ID (injected dose).
structure (smiles),measurement,setting,value
"NS(=O)(=O)c1nn2cc(-c3ccc(NC(=O)CN4CCN(CC(=O)O)CCN(CC(=O)O)CCN(CC(=O)O)CC4)cc3)nc2s1.[111In+3] [[^111In]ITDA1, [^111In]indium(III)2,2′,2″-(10-(2-oxo-2-((4-(2-sulfamoylimidazo[2,1-b][1,3,4]thiadiazol-6-yl)phenyl)amino)ethyl)-1,4,7,10-tetraazacyclododecan-1,4,7-triyl) triacetic acid]",Accumulation in the transplanted tumor (SPECT/CT),[1],not observed
same,Accumulation of radioactivity in the transplanted tumor (SPECT/CT),[2],highly observed
"NS(=O)(=O)c1nn2cc(-c3ccc(NC(=O)CN4CCN(CC(=O)O)CCN(CC(=O)Nc5ccc(-c6cn7nc(S(N)(=O)=O)sc7n6)cc5)CCN(CC(=O)O)CC4)cc3)nc2s1.[111In+3] [[^111In]ITDA2, [^111In]indium(III)2,2′-(4,10-bis(2-oxo-2-((4-(2-sulfamoylimidazo[2,1-b][1,3,4]thiadiazol-6-yl)phenyl)amino)ethyl)-1,4,7,10-tetraazacyclododecan-1,7-diyl) diacetic acid]",Biokinetics: Blood,[3],0.29 ± 0.04 % injected dose/g organ
same,Biokinetics: Brain,[3],0.34 ± 0.07 % injected dose/g organ
same,Biokinetics: Heart,[3],1.13 ± 0.19 % injected dose/g organ
same,Biokinetics: Intestines,[3],9.15 ± 1.04 % injected dose/g organ
same,Biokinetics: Kidney,[3],59.8 ± 4.04 % injected dose/g organ
same,Biokinetics: Liver,[3],2.77 ± 0.45 % injected dose/g organ
same,Biokinetics: Lungs,[3],1.70 ± 0.57 % injected dose/g organ
same,Biokinetics: Muscle,[3],0.64 ± 0.06 % injected dose/g organ
same,Biokinetics: Pancreas,[3],3.37 ± 0.28 % injected dose/g organ
same,Biokinetics: Spleen,[3],0.27 ± 0.07 % injected dose/g organ
same,Biokinetics: Stomach,[3],8.43 ± 1.08 % injected dose
same,Biokinetics: Tumor,[3],1.56 ± 0.17 % injected dose/g organ
same,Tumor/blood,[3],5.51 ± 0.78
same,Tumor/muscle,[3],2.46 ± 0.39
same,Biokinetics: Blood,[4]; 1 hour,0.27 ± 0.03 % injected dose/g organ
same,Biokinetics: Brain,[4]; 1 hour,0.30 ± 0.04 % injected dose/g organ
same,Biokinetics: Heart,[4]; 1 hour,5.64 ± 1.01 % injected dose/g organ
same,Biokinetics: Intestines,[4]; 1 hour,11.24 ± 1.54 % injected dose/g organ
same,Biokinetics: Kidney,[4]; 1 hour,137 ± 11.1 % injected dose/g organ
same,Biokinetics: Liver,[4]; 1 hour,4.11 ± 0.54 % injected dose/g organ
same,Biokinetics: Lungs,[4]; 1 hour,6.10 ± 0.97 % injected dose/g organ
same,Biokinetics: Muscle,[4]; 1 hour,2.05 ± 0.61 % injected dose/g organ
same,Biokinetics: Pancreas,[4]; 1 hour,20.01 ± 6.77 % injected dose/g organ
same,Biokinetics: Spleen,[4]; 1 hour,0.40 ± 0.27 % injected dose/g organ
same,Biokinetics: Stomach,[4]; 1 hour,3.99 ± 0.49 % injected dose
same,Biokinetics: Tumor,[4]; 1 hour,2.11 ± 0.32 % injected dose/g organ
same,Tumor/blood,[4]; 1 hour,7.78 ± 0.95
same,Tumor/muscle,[4]; 1 hour,1.12 ± 0.45
same,Biokinetics: Blood,[4]; 4 hours,0.18 ± 0.01 % injected dose/g organ
same,Biokinetics: Brain,[4]; 4 hours,0.30 ± 0.04 % injected dose/g organ
same,Biokinetics: Heart,[4]; 4 hours,2.81 ± 0.39 % injected dose/g organ
same,Biokinetics: Intestines,[4]; 4 hours,15.32 ± 1.51 % injected dose/g organ
same,Biokinetics: Kidney,[4]; 4 hours,143 ± 12.0 % injected dose/g organ
same,Biokinetics: Liver,[4]; 4 hours,4.87 ± 1.08 % injected dose/g organ
same,Biokinetics: Lungs,[4]; 4 hours,4.25 ± 0.76 % injected dose/g organ
same,Biokinetics: Muscle,[4]; 4 hours,2.00 ± 0.21 % injected dose/g organ
same,Biokinetics: Pancreas,[4]; 4 hours,20.88 ± 2.49 % injected dose/g organ
same,Biokinetics: Spleen,[4]; 4 hours,0.13 ± 0.10 % injected dose/g organ
same,Biokinetics: Stomach,[4]; 4 hours,5.09 ± 0.66 % injected dose
same,Biokinetics: Tumor,[4]; 4 hours,2.47 ± 0.30 % injected dose/g organ
same,Tumor/blood,[4]; 4 hours,13.85 ± 2.45
same,Tumor/muscle,[4]; 4 hours,1.24 ± 0.19
same,Biokinetics: Blood,[4]; 8 hours,0.20 ± 0.01 % injected dose/g organ
same,Biokinetics: Brain,[4]; 8 hours,0.35 ± 0.05 % injected dose/g organ
same,Biokinetics: Heart,[4]; 8 hours,1.89 ± 0.35 % injected dose/g organ
same,Biokinetics: Intestines,[4]; 8 hours,15.40 ± 0.94 % injected dose/g organ
same,Biokinetics: Kidney,[4]; 8 hours,110 ± 13.7 % injected dose/g organ
same,Biokinetics: Liver,[4]; 8 hours,4.58 ± 0.76 % injected dose/g organ
same,Biokinetics: Lungs,[4]; 8 hours,2.87 ± 1.08 % injected dose/g organ
same,Biokinetics: Muscle,[4]; 8 hours,1.39 ± 0.20 % injected dose/g organ
same,Biokinetics: Pancreas,[4]; 8 hours,13.15 ± 4.17 % injected dose/g organ
same,Biokinetics: Spleen,[4]; 8 hours,0.32 ± 0.20 % injected dose/g organ
same,Biokinetics: Stomach,[4]; 8 hours,6.78 ± 0.95 % injected dose
same,Biokinetics: Tumor,[4]; 8 hours,3.10 ± 0.35 % injected dose/g organ
same,Tumor/blood,[4]; 8 hours,15.31 ± 1.69
same,Tumor/muscle,[4]; 8 hours,2.28 ± 0.39
same,Biokinetics: Blood,[4]; 24 hours,0.26 ± 0.02 % injected dose/g organ
same,Biokinetics: Brain,[4]; 24 hours,0.37 ± 0.09 % injected dose/g organ
same,Biokinetics: Heart,[4]; 24 hours,1.58 ± 0.42 % injected dose/g organ
same,Biokinetics: Intestines,[4]; 24 hours,11.14 ± 2.06 % injected dose/g organ
same,Biokinetics: Kidney,[4]; 24 hours,76.4 ± 17.2 % injected dose/g organ
same,Biokinetics: Liver,[4]; 24 hours,3.50 ± 0.81 % injected dose/g organ
same,Biokinetics: Lungs,[4]; 24 hours,2.15 ± 0.49 % injected dose/g organ
same,Biokinetics: Muscle,[4]; 24 hours,1.00 ± 0.25 % injected dose/g organ
same,Biokinetics: Pancreas,[4]; 24 hours,7.23 ± 1.40 % injected dose/g organ
same,Biokinetics: Spleen,[4]; 24 hours,0.27 ± 0.13 % injected dose/g organ
same,Biokinetics: Stomach,[4]; 24 hours,9.33 ± 0.72 % injected dose
same,Biokinetics: Tumor,[4]; 24 hours,5.93 ± 0.88 % injected dose/g organ
same,Tumor/blood,[4]; 24 hours,22.63 ± 3.31
same,Tumor/muscle,[4]; 24 hours,6.18 ± 1.45
NS(=O)(=O)c1nn2cc(-c3ccc(NC(=O)CCC(C(=O)O)N4CCN(CC(=O)[O-])CCN(CC(=O)[O-])CCN(CC(=O)[O-])CC4)cc3)nc2s1.[111In+3] (centres unmarked) [[^111In]ITDA3],Accumulation of radioactivity: Blood,[5],0.06 ± 0.02 % ID/g
same,Accumulation of radioactivity: Brain,[5],0.24 ± 0.04 % ID/g
same,Accumulation of radioactivity: Heart,[5],1.24 ± 0.19 % ID/g
same,Accumulation of radioactivity: Intestines,[5],6.66 ± 0.86 % ID/g
same,Accumulation of radioactivity: Kidney,[5],49.65 ± 5.04 % ID/g
same,Accumulation of radioactivity: Liver,[5],2.96 ± 0.64 % ID/g
same,Accumulation of radioactivity: Lungs,[5],0.93 ± 0.18 % ID/g
same,Accumulation of radioactivity: MDA-MB-231 tumor,[5],0.72 ± 0.27 % ID/g
same,Accumulation of radioactivity: Muscle,[5],0.99 ± 0.26 % ID/g
same,Accumulation of radioactivity: Pancreas,[5],2.00 ± 0.54 % ID/g
same,Accumulation of radioactivity: Spleen,[5],0.12 ± 0.02 % ID/g
same,Accumulation of radioactivity: Stomach,[5],5.49 ± 0.55 % ID
same,Tumor/blood,[5],11.97 ± 6.08
same,Tumor/muscle,[5],0.77 ± 0.32
